pIC50: −log10 of the molar value. Converted amounts (≈) assume the structure as drawn.

Data set [1] deals with SK-BR-3. The data set can be described thus: Cytotoxicity against human SKBR3 cells after 2 days. The data set is classed as functional. Conditions: SK-BR-3, 48 h, read-out: ED50 (the source's name).
For data set [2], the system named is DU-145. The data set can be described thus: Cytotoxicity against human DU145 cells after 2 days. It counts as functional. The following applies: DU-145, 48 h, read-out: ED50 (the source's name).
The nature of data set [3]: Inhibition of tubulin assembly.
The test system of data set [4] is HCT-8. The experiment in a line: Cytotoxicity against human HCT8 cells after 2 days. The data set is classed as functional. The following applies: HCT-8, 48 h, read-out: ED50 (the source's name).
In data set [5] the test system is A549. The data set can be described thus: Cytotoxicity against human A549 cells after 2 days. The data set is classed as functional. Conditions: A549, 48 h, read-out: ED50 (the source's name).
For data set [6], the system named is KB. The experiment in a line: Cytotoxicity against human KB cells after 2 days. It counts as functional. The following applies: 48 h, read-out: ED50 (the source's name).
Data set [7] can be described thus: Cytotoxicity against human KBVIN cells expressing p-glycoprotein after 2 days. The data set is classed as functional. The following applies: 48 h, read-out: ED50 (the source's name).
Data set [8] can be described thus: Solubility of the compound in water. The data set is classed as physicochemical. Conditions: buffer.
The test system of data set [9] is SK-BR-3. The data set can be described thus: Selectivity ratio of ED50 for human SKBR3 cells to ED50 for human DU145 cells. It counts as functional.
Data set [10] deals with A549. The data set can be described thus: Selectivity ratio of ED50 for human SKBR3 cells to ED50 for human A549 cells. It counts as functional.
In data set [11] the test system is SK-BR-3. The experiment in a line: Selectivity ratio of ED50 for human SKBR3 cells to ED50 for human KB cells. It counts as functional.
Data set [12] has as its system A549. The data set can be described thus: Selectivity ratio of ED50 for human HCT8 cells to ED50 for human A549 cells. The data set is classed as functional.
Data set [13] relates to SK-BR-3. The experiment in a line: Selectivity ratio of ED50 for human SKBR3 cells to ED50 for human KBVIN cells. The data set is classed as functional.
For data set [14], the system named is HCT-8. The experiment in a line: Selectivity ratio of ED50 for human HCT8 cells to ED50 for human KB cells. The data set is classed as functional.
Data set [15] relates to DU-145. The data set can be described thus: Selectivity ratio of ED50 for human HCT8 cells to ED50 for human DU145 cells. The data set is classed as functional.
The nature of data set [16]: Selectivity ratio of ED50 for human HCT8 cells to ED50 for human KBVIN cells. The data set is classed as functional.

Turning to `CCN[C@H]1CCc2cc(OC)c(OC)c(OC)c2-c2ccc(SC)c(=O)cc21`, the EC50 is 0.0141 µg/mL (≈ 0.0351 µM) in [1]; 0.0138 µg/mL (≈ 0.0344 µM) in data set [2]; 0.031 µg/mL (≈ 0.0772 µM) in [4]; 0.0193 µg/mL (≈ 0.0481 µM) in data set [5]; 0.02 µg/mL (≈ 0.0498 µM) in data set [6]; 0.0146 µg/mL (≈ 0.0364 µM) in [7]. Besides, in data set [3], the pIC50 (commonly −log10 of the IC50, conventionally taken in molar units) was 5.27.
Take `COc1cc2c(c(OC)c1OC)-c1ccc(SC)c(=O)cc1[C@@H](N(C)C)CC2.O=C(O)CCC(=O)O`: the solubility (usually the concentration that dissolves in the medium under given conditions) in data set [8] came out at 103 mg/mL. Moreover, the EC50 amounted to 0.0129 µg/mL in [1]; 0.124 µg/mL in [2]; 0.022 µg/mL in data set [4]; 0.19 µg/mL in data set [5]; 0.12 µg/mL in [6]; 0.125 µg/mL in data set [7]. Further, the “Ratio ED50” value in [9], in data set [10], in data set [11], in [12], in data set [13] and in data set [14] was 10 throughout. Also, the “Ratio ED50” value in data set [15] and in data set [16] was 10 each time. The same compound gave a negative-log IC50 (pIC50) in [3] of 5.44.
Compound `CCN(CC)[C@H]1CCc2cc(OC)c(OC)c(OC)c2-c2ccc(SC)c(=O)cc21.O=C(O)CCC(=O)O` had a solubility in data set [8] of 107 mg/mL. The EC50 in data set [1] was 0.136 µg/mL; in [2], 0.125 µg/mL; in data set [4], 0.11 µg/mL; in data set [5] it was 0.181 µg/mL; in data set [6], 0.063 µg/mL; in data set [7], 0.151 µg/mL. The pIC50 in [3] is 4.80.
With `COc1cc2c(c(OC)c1OC)-c1ccc(SC)c(=O)cc1[C@@H](NS(=O)(=O)c1ccccc1[N+](=O)[O-])CC2`, the EC50 in data set [1] was found to be 0.0126 µg/mL (≈ 0.0226 µM); in [2], 0.0129 µg/mL (≈ 0.0231 µM); in data set [4], 0.027 µg/mL (≈ 0.0483 µM); in [5], 0.0209 µg/mL (≈ 0.0374 µM); in [6], 0.01 µg/mL (≈ 0.0179 µM); in data set [7] it was 0.112 µg/mL (≈ 0.2 µM). In [3], this compound gave a pIC50 of 5.96.
In the case of `COc1cc2c(c(OC)c1OC)-c1ccc(SC)c(=O)cc1[C@@H](N(C)S(=O)(=O)c1ccccc1[N+](=O)[O-])CC2`, the EC50 in data set [1] stood at 0.0285 µg/mL (≈ 0.0498 µM); in [2], 0.0312 µg/mL (≈ 0.0545 µM); in data set [4] it was 0.12 µg/mL (≈ 0.21 µM); in data set [5], 0.129 µg/mL (≈ 0.225 µM); in data set [6] it was 0.035 µg/mL (≈ 0.0611 µM); in [7], 0.153 µg/mL (≈ 0.266 µM). The compound also had a pIC50 in data set [3] of 6.04.
For the compound `CCN([C@H]1CCc2cc(OC)c(OC)c(OC)c2-c2ccc(SC)c(=O)cc21)S(=O)(=O)c1ccccc1[N+](=O)[O-]`, the EC50 in [1] was 0.148 µg/mL (≈ 0.253 µM); in data set [2] it was 0.163 µg/mL (≈ 0.278 µM); in data set [4] it was 0.52 µg/mL (≈ 0.886 µM); in data set [5] it was 0.212 µg/mL (≈ 0.361 µM); in data set [6], 0.13 µg/mL (≈ 0.222 µM); in data set [7] it was 0.174 µg/mL (≈ 0.296 µM). The pIC50 in [3] was 5.38.
Take `CCCN([C@H]1CCc2cc(OC)c(OC)c(OC)c2-c2ccc(SC)c(=O)cc21)S(=O)(=O)c1ccccc1[N+](=O)[O-]`: the EC50 was 0.616 µg/mL (≈ 1.02 µM) in [1]; 0.357 µg/mL (≈ 0.595 µM) in [2]; > 1 µg/mL in data set [4]; 1.63 µg/mL (≈ 2.72 µM) in [5]; 0.96 µg/mL (≈ 1.6 µM) in [6]; 1.36 µg/mL (≈ 2.27 µM) in data set [7]. The pIC50 in [3] is < 4.40.
On to `COc1cc2c(c(OC)c1O)-c1ccc(SC)c(=O)cc1[C@@H](N(C)S(=O)(=O)c1ccccc1[N+](=O)[O-])CC2`, for which the EC50 in data set [1] is 1.01 µg/mL (≈ 1.81 µM); in data set [2], 1.15 µg/mL (≈ 2.06 µM); in data set [4], > 1 µg/mL; in data set [5], 1.68 µg/mL (≈ 3.01 µM); in data set [6], 0.72 µg/mL (≈ 1.29 µM); in [7] it was 1.49 µg/mL (≈ 2.67 µM). In data set [3], this compound had a pIC50 of 5.44.
Consider `CN[C@H]1CCc2cc(OC)c(O)c(OC)c2-c2ccc(SC)c(=O)cc21`, for which the EC50 in data set [1] came to 0.487 µg/mL (≈ 1.31 µM); in data set [2] it was 0.505 µg/mL (≈ 1.35 µM); in data set [5], 1.55 µg/mL (≈ 4.14 µM); in [6], 0.55 µg/mL (≈ 1.47 µM); in data set [7] it was 1.38 µg/mL (≈ 3.7 µM). Besides, the pIC50 in data set [3] was < 4.40.
`CN[C@H]1CCc2cc(OC)c(OP(=O)(O)O)c(OC)c2-c2ccc(SC)c(=O)cc21` yielded a solubility in data set [8] of 15 mg/mL (≈ 33100 µM). Besides, the EC50 was 0.137 µg/mL (≈ 0.302 µM) in data set [1]; 0.157 µg/mL (≈ 0.347 µM) in data set [2]; > 1 µg/mL in [4]; 0.533 µg/mL (≈ 1.18 µM) in data set [5]; 0.25 µg/mL (≈ 0.551 µM) in data set [6]; 1.71 µg/mL (≈ 3.76 µM) in data set [7]. The pIC50 in data set [3] was < 4.40.
`CN[C@H]1CCc2cc(OC)c(O)c(OC)c2-c2ccc(SC)c(=O)cc21.O=C(O)CCC(=O)O` returned a solubility in [8] of 95 mg/mL. The EC50 was 0.39 µg/mL in data set [1]; 0.342 µg/mL in data set [2]; > 1 µg/mL in data set [4]; 1.26 µg/mL in data set [5]; 0.35 µg/mL in data set [6]; 1.35 µg/mL in [7]. This compound also showed a pIC50 in data set [3] of 4.64.
As to `COc1cc2c(c(OC)c1OC)-c1ccc(OC)c(=O)cc1[C@@H](NC(C)=O)CC2` [COLCHICINE], the EC50 was determined as 0.0027 µg/mL (≈ 0.00676 µM) in [1]; 0.0027 µg/mL (≈ 0.00676 µM) in data set [2]; 0.054 µg/mL (≈ 0.135 µM) in data set [4]; 0.0199 µg/mL (≈ 0.0498 µM) in data set [5]; 0.0038 µg/mL (≈ 0.00951 µM) in data set [6]; 0.158 µg/mL (≈ 0.395 µM) in [7].

(Values after ChEMBL document CHEMBL1250441, “Antitumor agents 273. Design and synthesis of N-alkyl-thiocolchicinoids as potential antitumor agents” (Bioorg Med Chem Lett, 2010).)
